Results taken from ChEMBL document CHEMBL1208684 (Eur J Med Chem, 2010).
pEC50, pIC50: −log10 of the molar value. Calls of active or inactive are those of the source. No cut-off for these calls is given here.

Experiments:
K562 = assay: Antiproliferative activity against human K562 cells after 48 hrs; format: functional, cell-based; conditions: K562, 48 h
[1] = Antiproliferative activity against multi drug-resistant rat LT12 cells after 48 hrs by XTT assay; format: functional, cell-based; conditions: LT12, 48 h
[2] = Cell cycle arrest in human KB/HeLa cells assessed as accumulation at G2/M phase after 24 hrs using propidium iodide staining by FACS analysis; format: functional, cell-based
RKO [3] = assay: Antiproliferative activity against human RKO cells expressing p27Kip1 after 48 hrs by XTT assay; format: functional, cell-based
P388 [4] = assay: Antiproliferative activity against adriamycin-resistant mouse P388 cells after 48 hrs by XTT assay; format: functional, cell-based; conditions: P388, 48 h
L1210 [5] = assay: Antiproliferative activity against vincristine-resistant mouse L1210 cells after 48 hrs by XTT assay; format: functional, cell-based; conditions: L1210, 48 h
[6] = Antiproliferative activity against human KB/HeLa cells after 48 hrs by XTT assay; format: functional, cell-based
Tubulin = Tubulin (Sus scrofa, UniProt P02554+P02550); assay: Inhibition of pig brain tubulin polymerization after 30 mins by turbidimetry
[7] = Antiproliferative activity against rat LT12 cells after 48 hrs by XTT assay; format: functional, cell-based; conditions: LT12, 48 h
NCI-H460 = assay: Antiproliferative activity against human NCI-H460 cells after 48 hrs by XTT assay; format: functional, cell-based; conditions: NCI-H460, 48 h
Tubulin (Sus scrofa) = Tubulin (Sus scrofa) (UniProt P02554+P02550); assay: Ratio of compound IC50 to colchicine IC50 for inhibition of pig brain tubulin polymerization
P388 [8] = assay: Antiproliferative activity against mouse P388 cells after 48 hrs by XTT assay; format: functional, cell-based; conditions: P388, 48 h
RKO [9] = assay: Antiproliferative activity against human RKO cells after 48 hrs by XTT assay; format: functional, cell-based
SK-OV-3 = assay: Antiproliferative activity against human SKOV3 cells after 48 hrs by XTT assay; format: functional, cell-based; conditions: SK-OV-3, 48 h
L1210 [10] = assay: Antiproliferative activity against mouse L1210 cells after 48 hrs by XTT assay; format: functional, cell-based; conditions: L1210, 48 h
[11] = Displacement of [3H]colchicine from biotin-labeled tubulin after 2 hrs by scintillation proximity assay
[12] = Displacement of [3H]paclitaxel from biotin-labeled tubulin after 2 hrs by scintillation proximity assay
SF-268 = assay: Antiproliferative activity against human SF268 cells after 48 hrs by XTT assay; format: functional, cell-based; conditions: SF-268, 48 h

Sequence of Tubulin (Sus scrofa) (P02550 whole entry, looked up): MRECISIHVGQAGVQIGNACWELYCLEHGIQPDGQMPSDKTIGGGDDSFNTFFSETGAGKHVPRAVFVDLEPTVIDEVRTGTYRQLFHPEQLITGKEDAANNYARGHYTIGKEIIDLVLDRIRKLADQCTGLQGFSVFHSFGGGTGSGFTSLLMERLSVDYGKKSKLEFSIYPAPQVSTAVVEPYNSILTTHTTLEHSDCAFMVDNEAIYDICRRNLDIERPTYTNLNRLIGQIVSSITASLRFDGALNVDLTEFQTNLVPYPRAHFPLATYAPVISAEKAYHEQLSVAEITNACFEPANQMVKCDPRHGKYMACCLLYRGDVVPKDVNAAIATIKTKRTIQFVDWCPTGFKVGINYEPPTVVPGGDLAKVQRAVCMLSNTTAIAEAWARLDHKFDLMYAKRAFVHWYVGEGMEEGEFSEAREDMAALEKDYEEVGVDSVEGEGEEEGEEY
Sequence of Tubulin (Sus scrofa) (P02554 whole entry, looked up): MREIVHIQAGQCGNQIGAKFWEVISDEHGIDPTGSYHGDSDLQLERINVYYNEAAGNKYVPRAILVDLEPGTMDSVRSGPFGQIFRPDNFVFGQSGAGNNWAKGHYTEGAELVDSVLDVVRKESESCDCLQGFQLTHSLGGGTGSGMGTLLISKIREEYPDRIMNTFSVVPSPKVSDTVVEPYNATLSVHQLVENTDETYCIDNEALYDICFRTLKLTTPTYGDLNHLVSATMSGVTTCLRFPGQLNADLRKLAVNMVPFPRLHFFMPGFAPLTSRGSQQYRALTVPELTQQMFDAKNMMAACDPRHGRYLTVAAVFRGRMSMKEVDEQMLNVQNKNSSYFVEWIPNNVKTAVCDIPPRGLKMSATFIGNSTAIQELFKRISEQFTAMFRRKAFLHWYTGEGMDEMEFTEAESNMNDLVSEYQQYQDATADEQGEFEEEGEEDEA

SMILES | pIC50 (K562) | IC50 (Tubulin) [nM] | also measured
O=C1c2cccc(Cl)c2C(Cc2ccccc2)c2cccc(Cl)c21 (centres undefined) | < 4.82 |  | 
CC(=O)O[C@H]1C(=O)[C@@]2(C)[C@H]([C@H](OC(=O)c3ccccc3)[C@]3(O)C[C@H](OC(=O)[C@H](O)[C@@H](NC(=O)c4ccccc4)c4ccccc4)C(C)=C1C3(C)C)[C@]1(OC(C)=O)CO[C@@H]1C[C@@H]2O [PACLITAXEL] |  |  | pIC50 [1]: 6.40; pEC50 [2]: 7.31; pIC50 (RKO [3]): < 5.52; pIC50 (P388 [4]): < 5.30; pIC50 (L1210 [5]): < 5.30; pIC50 [6]: 8.00
COc1cc(/C=C2/c3cccc(Cl)c3C(=O)c3cccc(Cl)c32)ccc1O | 6.57 | 380 | 
COC(=O)Nc1nc2cc(C(=O)c3cccs3)ccc2[nH]1 [NOCODAZOLE] |  |  | pIC50 [1]: 7.15; pEC50 [2]: 7.04; pIC50 [7]: 7.40; pIC50 (RKO [3]): < 5.00; pIC50 [6]: 6.85
COc1ccc(CC2c3cccc(Cl)c3C(=O)c3c(Cl)cccc32)cc1O | 5.80 | 1200 | 
O=C1c2c(O)cccc2C(=Cc2ccccc2)c2cccc(O)c21 | 5.64 | > 10000 | 
COc1cc(C(=O)C=C2c3cccc(Cl)c3C(=O)c3c(Cl)cccc32)cc(OC)c1OC | 6.14 | 1620 | 
COc1ccc(/C=C2/c3cccc(Cl)c3C(=O)c3cccc(Cl)c32)cc1 | 5.89 | 520 | 
COc1ccc(CC2c3cccc(Cl)c3C(=O)c3cccc(Cl)c32)cc1O (centres undefined) | 5.29 |  | 
COc1ccc(C=C2c3cccc(OC)c3C(=O)c3c(OC)cccc32)cc1 | 5.85 | > 2000 | 
COc1cccc(CC2c3cccc(Cl)c3C(=O)c3cccc(Cl)c32)c1 (centres undefined) | < 4.82 |  | 
O=C1c2c(O)cccc2C(=Cc2ccc([N+](=O)[O-])cc2)c2cccc(O)c21 | 5.77 | > 10000 | 
CC[C@]1(O)C[C@@H]2CN(CCc3c([nH]c4ccccc34)[C@@](C(=O)OC)(c3cc4c(cc3OC)N(C)[C@H]3[C@@](O)(C(N)=O)[C@H](O)[C@]5(CC)C=CCN6CC[C@]43[C@@H]65)C2)C1 [VINDESINE] |  |  | pIC50 [1]: 6.59; pIC50 [7]: 9.00; pIC50 (L1210 [5]): < 5.30
COc1cc2c(c(OC)c1OC)-c1ccc(OC)c(=O)cc1[C@@H](NC(C)=O)CC2 [COLCHICINE] |  |  | pEC50 [2]: 7.85; pIC50 (RKO [3]): < 5.00; pIC50 [6]: 7.52
COc1ccc(/C=C2/c3cccc(Cl)c3C(=O)c3cccc(Cl)c32)c(OC)c1OC | 4.76 |  | 
COc1cc(C=C2c3cccc(O)c3C(=O)c3c(O)cccc32)cc(OC)c1OC | 5.59 | > 10000 | 
CC[C@]1(O)C[C@H]2CN(CCc3c([nH]c4ccccc34)[C@@](C(=O)OC)(c3cc4c(cc3OC)N(C=O)[C@H]3[C@@](O)(C(=O)OC)[C@H](OC(C)=O)[C@]5(CC)C=CCN6CC[C@]43[C@@H]65)C2)C1 [VINCRISTINE] |  |  | pEC50 [2]: 8.62
COc1ccc(C=C2c3cccc(O)c3C(=O)c3c(O)cccc32)cc1O | 5.82 | 1930 | 
O=C1c2c(O)cccc2C(=Cc2ccc(O)c(O)c2)c2cccc(O)c21 | 5.59 |  | 
COc1ccc(C(=O)/C=C2\c3cccc(Cl)c3C(=O)c3cccc(Cl)c32)cc1OC | 6.62 | 690 | 
COc1cc(/C=C2\c3cccc(Cl)c3C(=O)c3cccc(Cl)c32)cc(OC)c1OC | 4.74 |  | 
O=C1c2c(O)cccc2C(=Cc2ccc(C(F)(F)F)cc2)c2cccc(O)c21 | 5.77 |  | 

The next lines start with results.

pIC50 (K562) | IC50 (Tubulin) [nM] | SMILES | also measured
5.80 |  | O=C(/C=C1\c2cccc(Cl)c2C(=O)c2cccc(Cl)c21)c1ccc(Cl)cc1 | 
5.72 |  | O=C(/C=C1\c2cccc(Cl)c2C(=O)c2cccc(Cl)c21)c1ccc([N+](=O)[O-])cc1 | 
6.03 | 730 | COc1ccc(C(=O)C=C2c3cccc(Cl)c3C(=O)c3c(Cl)cccc32)cc1 | 
5.30 | > 2000 | COc1cccc(C=C2c3cccc(Cl)c3C(=O)c3c(Cl)cccc32)c1O | 
5.70 |  | O=C1c2c(O)cccc2C(=Cc2ccc(O)cc2)c2cccc(O)c21 | 
7.00 | 360 | COc1ccc(C=C2c3cccc(Cl)c3C(=O)c3c(Cl)cccc32)c(OC)c1O | pIC50 [1]: 6.77; pEC50 [2]: 6.95; pIC50 (NCI-H460): 6.77; Ratio IC50 (Tubulin (Sus scrofa)): 4; pIC50 (P388 [8]): 6.49; pIC50 [7]: 6.43; pIC50 (RKO [9]): 6.80; pIC50 (RKO [3]): < 5.05; pIC50 (SK-OV-3): 6.80; pIC50 (P388 [4]): 6.34; pIC50 (L1210 [5]): 6.64; pIC50 (L1210 [10]): 6.46; pIC50 [11]: 5.93; pIC50 [6]: 6.89; Activity [12]: inactive; pIC50 (SF-268): 6.85
6.60 | 690 | COc1cccc(C(=O)/C=C2\c3cccc(Cl)c3C(=O)c3cccc(Cl)c32)c1 | 
5.77 | 510 | O=C(/C=C1\c2cccc(Cl)c2C(=O)c2cccc(Cl)c21)c1ccc(Br)cc1 | 
6.68 | 420 | COc1ccc(/C=C2\c3cccc(Cl)c3C(=O)c3cccc(Cl)c32)cc1O | 
5.70 | 4000 | COc1ccc(C=C2c3cccc(O)c3C(=O)c3c(O)cccc32)cc1 | 
< 4.82 |  | COc1cc(CC2c3cccc(Cl)c3C(=O)c3cccc(Cl)c32)cc(OC)c1OC (centres undefined) | 
5.00 | > 10000 | COc1cc(C=C2c3cccc(Cl)c3C(=O)c3c(Cl)cccc32)cc(OC)c1OC | 
5.30 | 6800 | COc1cc(C=C2c3cccc(Cl)c3C(=O)c3c(Cl)cccc32)ccc1O | 
6.66 | 530 | COc1ccc(C(=O)/C=C2\c3cccc(Cl)c3C(=O)c3cccc(Cl)c32)cc1 | 
< 4.52 |  | O=C1c2cccc(Cl)c2/C(=C/c2ccccc2)c2cccc(Cl)c21 | 
5.70 | > 10000 | COc1ccc(C=C2c3cccc(O)c3C(=O)c3c(O)cccc32)cc1OC | 
< 4.82 |  | O=C1c2cccc(Cl)c2C(Cc2ccc([N+](=O)[O-])cc2)c2cccc(Cl)c21 (centres undefined) | 
5.47 | 410 | CC(=O)Oc1ccc(C(=O)/C=C2\c3cccc(Cl)c3C(=O)c3cccc(Cl)c32)cc1 | 
< 4.52 |  | O=C1c2cccc(Cl)c2/C(=C\c2ccccc2)c2cccc(Cl)c21 | 
6.30 | 1600 | COc1ccc(C=C2c3cccc(Cl)c3C(=O)c3c(Cl)cccc32)c(O)c1 | 
6.54 | 1700 | O=C(/C=C1\c2cccc(Cl)c2C(=O)c2cccc(Cl)c21)c1ccccc1 | 
6.21 | 870 | COc1ccc(C=C2c3cccc(Cl)c3C(=O)c3c(Cl)cccc32)cc1 | 
5.70 | 1660 | COc1cc(C=C2c3cccc(Cl)c3C(=O)c3c(Cl)cccc32)cc(OC)c1O | 
5.85 | 690 | COc1ccc(/C=C2\c3cccc(Cl)c3C(=O)c3cccc(Cl)c32)cc1 | 
4.89 |  | COc1ccc(CC2c3cccc(Cl)c3C(=O)c3cccc(Cl)c32)cc1 (centres undefined) | 
< 4.82 |  | O=C1c2cccc(Cl)c2C(Cc2ccc(Cl)cc2)c2cccc(Cl)c21 (centres undefined) | 
6.60 | 360 | COc1ccc(C=C2c3cccc(Cl)c3C(=O)c3c(Cl)cccc32)cc1O | pIC50 [1]: 6.54; pEC50 [2]: 6.93; pIC50 (NCI-H460): 6.68; Ratio IC50 (Tubulin (Sus scrofa)): 4; pIC50 (P388 [8]): 6.41; pIC50 [7]: 6.20; pIC50 (RKO [9]): 6.80; pIC50 (RKO [3]): < 5.05; pIC50 (SK-OV-3): 6.85; pIC50 (P388 [4]): 6.19; pIC50 (L1210 [5]): 6.52; pIC50 (L1210 [10]): 6.29; pIC50 [11]: 5.86; pIC50 [6]: 6.85; Activity [12]: inactive; pIC50 (SF-268): 6.77
< 4.10 | > 2000 | COc1ccc(CC2c3cccc(Cl)c3C(=O)c3c(Cl)cccc32)cc1 | 
